Measured values published in the CheMixHub ionic liquid set.

Assay: xn = mol fraction of the nth substance listed
Settings: 101 kPa

O=P([O-])([O-])O.[Na+].[Na+] + CCCCCCCCCCCC[N+](C)(C)C.[Br-] + O
298.15 K
Settings	electrical conductivity [S/m]
x2 = 0, x1 = 0.0001802	0.1834
x2 = 0, x1 = 0.001799	1.203
x2 = 3.43e-06, x1 = 0.0001802	0.1849
x2 = 4.01e-06, x1 = 0.001799	1.201
x2 = 7.22e-06, x1 = 0.0001802	0.1863
x2 = 1.095e-05, x1 = 0.001799	1.202
x2 = 1.245e-05, x1 = 0.0001802	0.1888
x2 = 1.967e-05, x1 = 0.0001802	0.1919
x2 = 2.007e-05, x1 = 0.001799	1.204
x2 = 2.851e-05, x1 = 0.0001802	0.1958
x2 = 2.882e-05, x1 = 0.001799	1.205
x2 = 3.717e-05, x1 = 0.0001802	0.1997
x2 = 4.214e-05, x1 = 0.001799	1.207
x2 = 4.619e-05, x1 = 0.0001802	0.2038
x2 = 5.521e-05, x1 = 0.0001802	0.2079
x2 = 5.582e-05, x1 = 0.001799	1.209
x2 = 6.423e-05, x1 = 0.0001802	0.212
x2 = 6.895e-05, x1 = 0.001799	1.212
x2 = 7.307e-05, x1 = 0.0001801	0.2161
x2 = 8.173e-05, x1 = 0.0001801	0.2201
x2 = 8.209e-05, x1 = 0.001799	1.215
x2 = 9.056e-05, x1 = 0.0001801	0.224
x2 = 9.522e-05, x1 = 0.001799	1.218
x2 = 9.922e-05, x1 = 0.0001801	0.2279
x2 = 0.0001077, x1 = 0.0001801	0.2317
x2 = 0.0001087, x1 = 0.001799	1.221
x2 = 0.0001165, x1 = 0.0001801	0.2356
x2 = 0.0001218, x1 = 0.001799	1.224
x2 = 0.000125, x1 = 0.0001801	0.2393
x2 = 0.0001335, x1 = 0.0001801	0.243
x2 = 0.0001366, x1 = 0.001799	1.228
x2 = 0.0001441, x1 = 0.0001801	0.2473
x2 = 0.0001519, x1 = 0.001798	1.232
x2 = 0.0001524, x1 = 0.0001801	0.2509
x2 = 0.0001609, x1 = 0.0001801	0.2547
x2 = 0.0001667, x1 = 0.001798	1.236
x2 = 0.0001694, x1 = 0.0001801	0.2586
x2 = 0.0001777, x1 = 0.0001801	0.2624
x2 = 0.0001813, x1 = 0.001798	1.24
x2 = 0.0001858, x1 = 0.0001801	0.2662
x2 = 0.0001937, x1 = 0.0001801	0.2697
x2 = 0.0001963, x1 = 0.001798	1.243
x2 = 0.0002019, x1 = 0.0001801	0.2733
x2 = 0.0002103, x1 = 0.0001801	0.2774
x2 = 0.0002105, x1 = 0.001798	1.246
x2 = 0.0002184, x1 = 0.0001801	0.2809
x2 = 0.0002245, x1 = 0.001798	1.249
x2 = 0.000226, x1 = 0.0001801	0.2841
x2 = 0.0002339, x1 = 0.0001801	0.2867
x2 = 0.0002387, x1 = 0.001798	1.252
x2 = 0.0002421, x1 = 0.0001801	0.2888
x2 = 0.0002516, x1 = 0.0001801	0.2909
x2 = 0.0002524, x1 = 0.001798	1.254
x2 = 0.0002625, x1 = 0.0001801	0.2928
x2 = 0.0002663, x1 = 0.001798	1.257
x2 = 0.0002743, x1 = 0.0001801	0.2947
x2 = 0.0002801, x1 = 0.001798	1.259
x2 = 0.0002882, x1 = 0.0001801	0.2967
x2 = 0.0002936, x1 = 0.001798	1.262
x2 = 0.0003037, x1 = 0.0001801	0.2989
x2 = 0.0003071, x1 = 0.001798	1.265
x2 = 0.0003189, x1 = 0.0001801	0.3011
x2 = 0.0003202, x1 = 0.001798	1.268
x2 = 0.0003294, x1 = 0.001798	1.27
x2 = 0.0003301, x1 = 0.0001801	0.3025

COC(=O)OC + CCCCCCCC[N+](C)(CCCCCCCC)CCCCCCCC.[Cl-]
x1 = 1
Settings	electrical conductivity [S/m]	viscosity [mPa·s]
298.15 K	5.2e-05	0.58
303.15 K	5.5e-05	–
308.15 K	4.9e-05	–
313.15 K	5.5e-05	0.45
318.15 K	5.2e-05	0.4

Cc1ccccc1 + CCCCCCCC[n+]1ccc2ccccc2c1.O=S(=O)([N-]S(=O)(=O)C(F)(F)F)C(F)(F)F
Settings	viscosity [mPa·s]
308.15 K, x1 = 1	0.5

c1ccsc1 + CCCCCCCC[n+]1ccc2ccccc2c1.O=S(=O)([N-]S(=O)(=O)C(F)(F)F)C(F)(F)F
Settings	viscosity [mPa·s]
348.15 K, x1 = 1	0.34
